Results reported in ChEMBL document CHEMBL3885861, “Open TG-GATES”.

Species on record: Rattus norvegicus
Experiment: Open TG-GATES - Regimen: Single
Format: toxicity, organism-based, Sprague-Dawley
Set-up: regimen Single, gender Male, age 6 weeks
Conditions: in vivo, po, 24 h, route gavage; for Bas / Eos / Hb / Ht / Lym / MCH / MCHC / MCV / Mono / Neu / Plat / RBC / Ret / WBC: tissue Blood; for KIDNEY_L / KIDNEY_R / KIDNEY_TOTAL: tissue Kidney; for LIVER: tissue Liver; for A/G / ALP / ALT / AST / BUN / CRE / Ca / Cl / DBIL / GLC / IP / K / LDH / Na / PL / RALB / TBIL / TC / TG / TP / gamma-GTP: tissue Plasma

## O=NN1CCOCC1 [N-NITROSOMORPHOLINE]
0 mg/kg, dose level Control
  TERMINAL_BW: 228.1 g
  Bas: 0%
  Eos: 0.6%
  Hb: 12.5 g/dL
  Ht: 38.4%
  Lym: 80%
  MCH: 20.2 pg
  MCHC: 32.5%
  MCV: 62.2 fL
  Mono: 2.2%
  Neu: 16.4%
  Plat: 122.3 x10_4/uL
  RBC: 619.4 x10_4/ul
  Ret: 8%
  WBC: 73.5 x10_2/uL
  KIDNEY_L: 1 g
  KIDNEY_R: 1 g
  KIDNEY_TOTAL: 2.1 g
  LIVER: 10.8 g
  A/G: 1
  ALP: 1437.2 IU/L
  ALT: 38.6 IU/L
  AST: 65.2 IU/L
  BUN: 15.9 mg/dL
  CRE: 0.2 mg/dL
  Ca: 10.8 mg/dL
  Cl: 103.3 meq/L
  DBIL: 0 mg/dL
  GLC: 188 mg/dL
  IP: 6.6 mg/dL
  K: 4.4 meq/L
  LDH: 152.8 IU/L
  Na: 141.3 meq/L
  PL: 162.4 mg/dL
  RALB: 2.9 g/dL
  TBIL: 0.006 mg/dL
  TC: 81.8 mg/dL
  TG: 144.6 mg/dL
  TP: 5.7 g/dL
  gamma-GTP: 1 IU/L
100 mg/kg, dose level Low
  TERMINAL_BW: 215.1 g
  Bas: 0%
  Eos: 0.4%
  Hb: 13.6 g/dL
  Ht: 41.7%
  Lym: 66.4%
  MCH: 20.4 pg
  MCHC: 32.7%
  MCV: 62.4 fL
  Mono: 3.8%
  Neu: 27.8%
  Plat: 110.9 x10_4/uL
  RBC: 669.4 x10_4/ul
  Ret: 7.6%
  WBC: 88.5 x10_2/uL
  KIDNEY_L: 1 g
  KIDNEY_R: 1 g
  KIDNEY_TOTAL: 2 g
  LIVER: 9.2 g
  A/G: 1.1
  ALP: 1723.6 IU/L
  ALT: 134.6 IU/L
  AST: 347.6 IU/L
  BUN: 18.8 mg/dL
  CRE: 0.2 mg/dL
  Ca: 10.8 mg/dL
  Cl: 102 meq/L
  DBIL: 0.046 mg/dL
  GLC: 164.2 mg/dL
  IP: 8 mg/dL
  K: 4.3 meq/L
  LDH: 883.2 IU/L
  Na: 140.8 meq/L
  PL: 141.4 mg/dL
  RALB: 2.8 g/dL
  TBIL: 0.084 mg/dL
  TC: 73.4 mg/dL
  TG: 34.1 mg/dL
  TP: 5.4 g/dL
  gamma-GTP: 0.9 IU/L
300 mg/kg, dose level Middle
  TERMINAL_BW: 212.5 g
  Bas: 0%
  Eos: 0.6%
  Hb: 14.2 g/dL
  Ht: 43.1%
  Lym: 59.2%
  MCH: 20.9 pg
  MCHC: 32.9%
  MCV: 63.4 fL
  Mono: 3.2%
  Neu: 36.2%
  Plat: 115.8 x10_4/uL
  RBC: 680.2 x10_4/ul
  Ret: 7.6%
  WBC: 67.6 x10_2/uL
  KIDNEY_L: 1 g
  KIDNEY_R: 1 g
  KIDNEY_TOTAL: 1.9 g
  LIVER: 8.7 g
  A/G: 1.2
  ALP: 1483.8 IU/L
  ALT: 94.6 IU/L
  AST: 245.8 IU/L
  BUN: 15 mg/dL
  CRE: 0.2 mg/dL
  Ca: 10.7 mg/dL
  Cl: 101.9 meq/L
  DBIL: 0.038 mg/dL
  GLC: 172.6 mg/dL
  IP: 8.1 mg/dL
  K: 4.1 meq/L
  LDH: 426 IU/L
  Na: 140.4 meq/L
  PL: 115.4 mg/dL
  RALB: 3 g/dL
  TBIL: 0.064 mg/dL
  TC: 60.8 mg/dL
  TG: 31.5 mg/dL
  TP: 5.5 g/dL
  gamma-GTP: 1 IU/L
600 mg/kg, dose level High
  TERMINAL_BW: 197.8 g
  Bas: 0%
  Eos: 1%
  Hb: 14.9 g/dL
  Ht: 44.9%
  Lym: 35%
  MCH: 20.6 pg
  MCHC: 33.3%
  MCV: 61.9 fL
  Mono: 2.4%
  Neu: 61.8%
  Plat: 103.6 x10_4/uL
  RBC: 727.4 x10_4/ul
  Ret: 7.5%
  WBC: 51.6 x10_2/uL
  KIDNEY_L: 0.9 g
  KIDNEY_R: 0.9 g
  KIDNEY_TOTAL: 1.8 g
  LIVER: 7.9 g
  A/G: 1.1
  ALP: 1527.2 IU/L
  ALT: 100.4 IU/L
  AST: 304 IU/L
  BUN: 13.9 mg/dL
  CRE: 0.1 mg/dL
  Ca: 10.5 mg/dL
  Cl: 101.5 meq/L
  DBIL: 0.022 mg/dL
  GLC: 174.4 mg/dL
  IP: 8 mg/dL
  K: 4.2 meq/L
  LDH: 476.8 IU/L
  Na: 139.4 meq/L
  PL: 105 mg/dL
  RALB: 3.1 g/dL
  TBIL: 0.044 mg/dL
  TC: 56.2 mg/dL
  TG: 25.4 mg/dL
  TP: 5.7 g/dL
  gamma-GTP: 1.1 IU/L
